Laboratory results from ChEMBL document CHEMBL4828763, “Discovery of Potent and Selective CDK9 Degraders for Targeting Transcription Regulation in Triple-Negative Breast Cancer” (J Med Chem, 2021).
Active and inactive are the calls of the source. The calls are words filed in the database; no cut-off is given here.

Experiments:
[1] = target: T1, Protein cereblon/Cyclin-dependent kinase 9 (Homo sapiens) (UniProt P50750+Q96SW2); test: Protac activity at CRBN/CDK9 in human MDA-MB-231 cells assessed as induction of degradation of CDK9 pretreated with thalidomide at 500 nM incubated for 8 hrs by Western blot analysis; format: cell-based
[2] = target: Protein cereblon/Cyclin-dependent kinase 2 (Homo sapiens) (UniProt P24941+Q96SW2); test: Protac activity at CRBN/CDK2 in human MDA-MB-231 cells assessed as induction of degradation of CDK2 at 0.01 to 2.5 uM incubated for 4 to 8 hrs by Western blot analysis; format: cell-based; conditions: dose 0.01-2.5 µM, time 4-8 hrs
[3] = target: T1, Protein cereblon/Cyclin-dependent kinase 9 (Homo sapiens); test: Protac activity at CRBN/CDK9 in human MDA-MB-231 cells assessed as induction of degradation of CDK9 pretreated with PR171 at 500 nM incubated for 8 hrs by Western blot analysis; format: cell-based
Tumour [4] = test: Induction of CDK9 degradation in tumor of human MDA-MB-231 cells xenografted in BALB/c mouse model at 0.15 mM intratumoral injection measured after 16 hrs by Western blot analysis relative to control; format: functional, Neoplasm
[5] = target: Protein cereblon/Eukaryotic peptide chain release factor GTP-binding subunit ERF3A (Homo sapiens) (UniProt Q96SW2+P15170); test: Protac activity at CRBN/GSPT1 in human MDA-MB-231 cells assessed as induction of degradation of GSPT1 incubated for 4 to 8 hrs by Western blot analysis; format: cell-based; conditions: time 4-8 hrs
[6] = target: T1, Protein cereblon/Cyclin-dependent kinase 9 (Homo sapiens); test: Protac activity at CRBN/CDK9 in human MDA-MB-231 cells assessed as induction of degradation of CDK9 at 500 nM incubated for 8 hrs by Western blot analysis; format: cell-based
[7] = target: Protein cereblon/Cyclin-dependent kinase 6 (Homo sapiens) (UniProt Q00534+Q96SW2); test: Protac activity at CRBN/CDK6 in human MDA-MB-231 cells assessed as induction of degradation of CDK6 at 0.01 to 2.5 uM incubated for 4 to 8 hrs by Western blot analysis; format: cell-based; conditions: dose 0.01-2.5 µM, time 4-8 hrs
MDA-MB-231 [8] = test: Growth inhibition of human MDA-MB-231 cells assessed as cell viability measured after 4 days by WST8 assay; format: functional, cell-based; conditions: MDA-MB-231, 96 h
[9] = Solubility of the compound; format: physicochemical
[10] = Downregulation of MYC gene expression in human MDA-MB-231 cells at 0.5 uM incubated for 4 hrs by quantitative RT-PCR based gene set enrichment analysis relative to control; format: functional
[11] = target: Protein cereblon/Cyclin-dependent kinase 1 (Homo sapiens) (UniProt P06493+Q96SW2); test: Protac activity at CRBN/CDK1 in human MDA-MB-231 cells assessed as induction of degradation of CDK1 at 0.01 to 2.5 uM incubated for 4 to 8 hrs by Western blot analysis; format: cell-based; conditions: dose 0.01-2.5 µM, time 4-8 hrs
[12] = Downregulation of MCL1 gene expression in human MDA-MB-231 cells at 0.5 uM incubated for 4 hrs by quantitative RT-PCR based gene set enrichment analysis relative to control; format: functional
[13] = target: Protein cereblon/Cyclin-dependent kinase 5 (Homo sapiens) (UniProt Q00535+Q96SW2); test: Protac activity at CRBN/CDK5 in human MDA-MB-231 cells assessed as induction of degradation of CDK5 at 0.01 to 2.5 uM incubated for 4 to 8 hrs by Western blot analysis; format: cell-based; conditions: dose 0.01-2.5 µM, time 4-8 hrs
Tumour [14] = test: Induction of CDK7 degradation in tumor of human MDA-MB-231 cells xenografted in BALB/c mouse model at 0.15 mM intratumoral injection measured after 16 hrs by Western blot analysis relative to control; format: functional, tissue-based; conditions: Neoplasm
MDA-MB-231 [15] = test: Downregulation of CDK9 mRNA expression in human MDA-MB-231 cells at 0.5 uM incubated for 4 hrs by RNA-seq analysis; format: functional, cell-based
[16] = target: Protein cereblon/Cyclin-dependent kinase 7 (Homo sapiens) (UniProt P50613+Q96SW2); test: Protac activity at CRBN/CDK7 in human MDA-MB-231 cells assessed as induction of degradation of CDK7 at 0.01 to 2.5 uM incubated for 4 to 8 hrs by Western blot analysis; format: cell-based; conditions: dose 0.01-2.5 µM, time 4-8 hrs
BT-549 = test: Growth inhibition of human BT-549 cells assessed as cell viability measured after 4 days by WST8 assay; format: functional, cell-based; conditions: BT-549, 96 h
MDA-MB-231 [17] = test: Induction of apoptosis in human MDA-MB-231 cells assessed as apoptotic cells at 500 nM incubated for 48 hrs by Annexin V-FITC/PI analysis (reference value: 4.85%); format: functional
[18] = target: T1, Protein cereblon/Cyclin-dependent kinase 9 (Homo sapiens); test: Protac activity at CRBN/CDK9 in human MDA-MB-231 cells assessed as induction of degradation of CDK9 measured after 4 to 8 hrs by Western blot analysis; format: cell-based; conditions: dose 0.01-2.5 µM, time 4-8 hrs
[19] = target: T1, Protein cereblon/Cyclin-dependent kinase 9 (Homo sapiens); test: Protac activity at CRBN/CDK9 in human MDA-MB-231 cells assessed as induction of degradation of CDK9 pretreated with compound 44 at 500 nM incubated for 8 hrs by Western blot analysis; format: cell-based
MDA-MB-231 [20] = test: Induction of apoptosis in human MDA-MB-231 cells assessed as apoptotic cells at 10 nM incubated for 48 hrs by Annexin V-FITC/PI analysis (reference value: 4.85%); format: functional
[21] = target: Protein cereblon/Cyclin-dependent kinase 4 (Homo sapiens) (UniProt P11802+Q96SW2); test: Protac activity at CRBN/CDK4 in human MDA-MB-231 cells assessed as induction of degradation of CDK4 at 0.01 to 2.5 uM incubated for 4 to 8 hrs by Western blot analysis; format: cell-based; conditions: dose 0.01-2.5 µM, time 4-8 hrs
MDA-MB-231 [22] = test: Induction of apoptosis in human MDA-MB-231 cells assessed as apoptotic cells at 100 nM incubated for 48 hrs by Annexin V-FITC/PI analysis (reference value: 4.85%); format: functional
[23] = target: T1, Protein cereblon/Cyclin-dependent kinase 9 (Homo sapiens); test: Protac activity at CRBN/CDK9 in human MDA-MB-231 cells assessed as induction of degradation of CDK9 pretreated with MLN4924 at 500 nM incubated for 8 hrs by Western blot analysis; format: cell-based
MDA-MB-468 = test: Growth inhibition of human MDA-MB-468 cells assessed as cell viability measured after 4 days by WST8 assay; format: functional, cell-based; conditions: MDA-MB-468, 96 h
[24] = target: T1, Protein cereblon/Cyclin-dependent kinase 9 (Homo sapiens); test: Protac activity at CRBN/CDK9 in human MDA-MB-231 cells assessed as induction of degradation of CDK9 at 500 nM measured after 2 hrs by Western blot analysis; format: cell-based

T1 sequence (P50750 whole entry, looked up): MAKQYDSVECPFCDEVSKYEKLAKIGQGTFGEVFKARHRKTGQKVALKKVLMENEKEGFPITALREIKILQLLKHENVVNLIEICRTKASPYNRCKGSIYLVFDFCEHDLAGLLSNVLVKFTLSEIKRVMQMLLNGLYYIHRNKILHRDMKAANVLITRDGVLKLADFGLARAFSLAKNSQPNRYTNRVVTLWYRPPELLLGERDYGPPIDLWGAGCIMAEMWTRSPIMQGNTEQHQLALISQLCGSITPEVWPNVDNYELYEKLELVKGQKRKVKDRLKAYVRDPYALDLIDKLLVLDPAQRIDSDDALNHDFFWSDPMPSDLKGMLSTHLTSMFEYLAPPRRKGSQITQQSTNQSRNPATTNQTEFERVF
T1 sequence (Q96SW2 whole entry, looked up): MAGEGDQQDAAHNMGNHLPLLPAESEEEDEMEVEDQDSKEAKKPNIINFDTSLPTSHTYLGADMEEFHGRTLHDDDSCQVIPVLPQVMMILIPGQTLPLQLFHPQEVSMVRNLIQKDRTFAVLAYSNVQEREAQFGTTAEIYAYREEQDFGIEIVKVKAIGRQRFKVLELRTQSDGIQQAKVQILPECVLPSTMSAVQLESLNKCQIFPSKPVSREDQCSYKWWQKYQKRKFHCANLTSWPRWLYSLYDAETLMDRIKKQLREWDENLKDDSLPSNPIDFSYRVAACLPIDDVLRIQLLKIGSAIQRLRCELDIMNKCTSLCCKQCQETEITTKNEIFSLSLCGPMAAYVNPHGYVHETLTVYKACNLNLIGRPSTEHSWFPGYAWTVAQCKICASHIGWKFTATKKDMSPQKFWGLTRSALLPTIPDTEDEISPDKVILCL
Sequence of Protein cereblon/Cyclin-dependent kinase 5 (Homo sapiens) (Q00535 whole entry, looked up): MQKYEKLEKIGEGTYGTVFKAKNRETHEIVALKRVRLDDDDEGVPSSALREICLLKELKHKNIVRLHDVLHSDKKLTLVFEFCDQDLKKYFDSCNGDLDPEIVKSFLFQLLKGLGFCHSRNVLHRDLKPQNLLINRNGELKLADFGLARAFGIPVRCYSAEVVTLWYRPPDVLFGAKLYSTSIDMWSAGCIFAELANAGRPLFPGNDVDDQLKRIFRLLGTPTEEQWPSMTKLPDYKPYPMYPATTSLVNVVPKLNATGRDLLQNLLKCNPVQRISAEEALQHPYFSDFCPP
Sequence of Protein cereblon/Cyclin-dependent kinase 5 (Homo sapiens) (Q96SW2 whole entry, looked up): as the sequence (Q96SW2 whole entry, looked up) above
Sequence of Protein cereblon/Eukaryotic peptide chain release factor GTP-binding subunit ERF3A (Homo sapiens) (P15170 whole entry, looked up): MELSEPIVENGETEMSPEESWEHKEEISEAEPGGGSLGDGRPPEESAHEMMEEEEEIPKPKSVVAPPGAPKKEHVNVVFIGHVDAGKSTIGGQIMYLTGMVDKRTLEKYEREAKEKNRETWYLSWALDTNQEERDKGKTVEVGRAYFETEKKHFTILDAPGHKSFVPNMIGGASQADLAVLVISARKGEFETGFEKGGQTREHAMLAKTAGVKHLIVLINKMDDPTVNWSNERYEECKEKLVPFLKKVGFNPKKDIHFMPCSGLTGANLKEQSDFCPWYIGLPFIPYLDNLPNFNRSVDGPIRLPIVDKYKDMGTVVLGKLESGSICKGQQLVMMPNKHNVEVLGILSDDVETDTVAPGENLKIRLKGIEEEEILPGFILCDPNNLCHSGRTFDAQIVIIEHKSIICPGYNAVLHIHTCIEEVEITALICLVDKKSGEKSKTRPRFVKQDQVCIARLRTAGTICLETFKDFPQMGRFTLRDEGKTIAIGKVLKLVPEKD
Sequence of Protein cereblon/Eukaryotic peptide chain release factor GTP-binding subunit ERF3A (Homo sapiens) (Q96SW2 whole entry, looked up): as the sequence (Q96SW2 whole entry, looked up) above
Sequence of Protein cereblon/Cyclin-dependent kinase 6 (Homo sapiens) (Q00534 whole entry, looked up): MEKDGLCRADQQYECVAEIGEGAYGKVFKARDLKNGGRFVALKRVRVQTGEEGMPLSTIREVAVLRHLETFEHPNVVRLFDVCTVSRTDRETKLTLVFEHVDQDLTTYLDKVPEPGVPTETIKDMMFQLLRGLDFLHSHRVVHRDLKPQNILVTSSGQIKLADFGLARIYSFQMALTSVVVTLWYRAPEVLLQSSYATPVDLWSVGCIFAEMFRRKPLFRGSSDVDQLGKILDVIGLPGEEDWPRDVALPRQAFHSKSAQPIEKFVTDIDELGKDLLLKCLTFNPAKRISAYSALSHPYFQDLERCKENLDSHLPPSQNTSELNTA
Sequence of Protein cereblon/Cyclin-dependent kinase 6 (Homo sapiens) (Q96SW2 whole entry, looked up): as the sequence (Q96SW2 whole entry, looked up) above
Sequence of Protein cereblon/Cyclin-dependent kinase 4 (Homo sapiens) (P11802 2-303 limits assumed): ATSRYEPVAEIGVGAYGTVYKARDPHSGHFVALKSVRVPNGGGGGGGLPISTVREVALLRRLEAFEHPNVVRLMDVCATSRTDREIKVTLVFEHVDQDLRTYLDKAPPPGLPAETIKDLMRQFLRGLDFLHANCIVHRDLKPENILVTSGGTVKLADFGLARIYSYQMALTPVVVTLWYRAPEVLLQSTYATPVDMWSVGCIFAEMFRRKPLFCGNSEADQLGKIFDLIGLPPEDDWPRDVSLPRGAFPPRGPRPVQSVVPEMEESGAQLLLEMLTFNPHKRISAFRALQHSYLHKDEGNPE
Sequence of Protein cereblon/Cyclin-dependent kinase 4 (Homo sapiens) (Q96SW2 whole entry partner): as the sequence (Q96SW2 whole entry, looked up) above
Sequence of Protein cereblon/Cyclin-dependent kinase 1 (Homo sapiens) (P06493 whole entry, looked up): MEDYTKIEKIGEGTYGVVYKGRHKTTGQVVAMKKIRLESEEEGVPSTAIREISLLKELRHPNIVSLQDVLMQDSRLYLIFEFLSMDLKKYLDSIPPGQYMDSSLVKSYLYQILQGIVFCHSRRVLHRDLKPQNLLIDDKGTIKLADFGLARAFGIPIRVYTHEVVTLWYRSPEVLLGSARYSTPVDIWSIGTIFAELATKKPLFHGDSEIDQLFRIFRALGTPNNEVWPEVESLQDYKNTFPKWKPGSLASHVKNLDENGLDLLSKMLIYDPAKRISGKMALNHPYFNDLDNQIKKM
Sequence of Protein cereblon/Cyclin-dependent kinase 1 (Homo sapiens) (Q96SW2 whole entry, looked up): as the sequence (Q96SW2 whole entry, looked up) above
Sequence of Protein cereblon/Cyclin-dependent kinase 7 (Homo sapiens) (P50613 whole entry, looked up): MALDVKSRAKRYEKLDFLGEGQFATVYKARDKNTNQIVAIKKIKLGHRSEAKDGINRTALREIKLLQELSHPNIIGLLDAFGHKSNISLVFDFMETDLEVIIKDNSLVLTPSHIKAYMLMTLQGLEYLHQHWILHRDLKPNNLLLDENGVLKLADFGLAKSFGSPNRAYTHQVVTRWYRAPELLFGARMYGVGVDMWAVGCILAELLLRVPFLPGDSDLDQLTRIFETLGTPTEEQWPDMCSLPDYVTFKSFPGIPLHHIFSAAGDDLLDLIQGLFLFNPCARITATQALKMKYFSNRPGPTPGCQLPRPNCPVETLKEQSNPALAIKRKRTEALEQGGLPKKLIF
Sequence of Protein cereblon/Cyclin-dependent kinase 7 (Homo sapiens) (Q96SW2 whole entry, looked up): as the sequence (Q96SW2 whole entry, looked up) above

Activity [1]: inactive
Activity [2]: inactive
Activity [3]: inactive
Activity [5]: inactive
Activity [6]: Active
Activity [7]: inactive
IC50 (MDA-MB-231 [8]): 51 nM
solubility [9]: Insoluble
Activity [11]: inactive
Activity [13]: inactive
Activity [16]: inactive
IC50 (BT-549): 48 nM
Activity [18]: Dose-Dependent Effect
Activity [19]: inactive
Activity [21]: inactive
Activity [23]: inactive
IC50 (MDA-MB-468): 66 nM
Activity [24]: 100%
SMILES: CC(C)c1cnn2c(NCc3ccc(NC(=O)CCCCCCCOc4cccc5c4C(=O)N(C4CCC(=O)NC4=O)C5=O)cc3)nc(OC3CCN(C)CC3)nc12 (stereo unspecified)
Activity (Tumour [4]): 26%
inhibition at 0.5 µM [10]: 75.3%
inhibition at 0.5 µM [12]: 59.6%
Activity (Tumour [14]): inactive
Activity (MDA-MB-231 [15]): inactive
Activity (MDA-MB-231 [17]): 26.49%
Activity (MDA-MB-231 [20]): 6.39%
Activity (MDA-MB-231 [22]): 10.48%
